This is an account of results in US20080293696A1, “2-Aminoarylcarboxamides Useful as Cancer Chemotherapeutic Agents” (Bayer Pharmaceuticals Corporation, priority 2004, published 2008).

The test system of the assay is PAKT/PKB (p-(S473) AKT) in H209 small cell lung carcinoma cells stimulated with Stem Cell Factor. As to the kind of experiment: PAKT/PKB Cytoblot Assay with H209 cells (SCF-stimulated p-(S473) AKT). In kind it is cell-based. To be noted: Homo sapiens, NCI-H209, compound 1 hour, SCF 25 ng/mL 5 minutes. In a few lines:
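H209 SCLC cells kept overnight in RPMI with 0.1% BSA were pretreated 1 h at 37 °C with compound (0.01–10 μM final), then stimulated with SCF 25 ng/mL for 5 min. After formaldehyde/methanol fixation, p-(S473) AKT was detected in-cell with HRP secondary and ECL chemiluminescence, and IC50 was derived.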

Setting [1] is: group: between 500 nM and 1 μM (units in value).

By IC50 is commonly meant the midpoint of a concentration-inhibition curve.

Structures can show the parent of a compound that is named as a salt. A value given as a limit tells only on which side of the number the result lay.

With `CN(C)C(=O)c1cc(CNc2ccc(F)cc2C(=O)Nc2ccc3c(c2)OC(F)(F)O3)ccn1` [Example 42, 4-{[(2-{[(2,2-difluoro-1,3-benzodioxol-5-yl)amino]carbonyl}-4-fluorophenyl)amino]methyl}-N,N-dimethylpyridine-2-carboxamide], for the setting “group: between 1 and 3 μM”, the half-inhibitory concentration (IC50) was in the range of 1000 to 3000 nM.

`COc1ccc(NC(=O)Nc2cc(CNc3ccccc3C(=O)Nc3ccc4c(c3)OC(F)(F)O4)ccn2)cc1` [Example 163, N-(2,2-difluoro-1,3-benzodioxol-5-yl)-2-({[2-({[(4-methoxyphenyl)amino]carbonyl}amino)pyridin-4-yl]methyl}amino)benzamide] came in with a 50% inhibitory concentration (IC50) under setting [1] of 500 to 1000 nM.

In the case of `CC(C)OCCCNC(=O)c1cc(CNc2ccccc2C(=O)Nc2ccc3c(c2)OC(F)(F)O3)ccn1` [Example 111, 4-{[(2-{[(2,2-difluoro-1,3-benzodioxol-5-yl)amino]carbonyl}phenyl)amino]methyl}-N-(3-isopropoxypropyl)pyridine-2-carboxamide], where the note is “group: less than 500 nM”, the 50% inhibitory concentration (IC50) is less than 500 nM.

Consider `O=C(Nc1ccc2c(c1)OC(F)(F)O2)c1ccccc1NCc1ccnc(CO)c1` [Example 177, N-(2,2-difluoro-1,3-benzodioxol-5-yl)-2-({[2-(hydroxymethyl)pyridin-4-yl]methyl}amino)benzamide], for which the IC50 under setting [1] lay within 500 to 1000 nM.

Compound `Nc1cc(CNc2ccccc2C(=O)Nc2ccc3c(c2)OC(F)(F)O3)ccn1` [Example 153, 2-{[(2-aminopyridin-4-yl)methyl]amino}-N-(2,2-difluoro-1,3-benzodioxol-5-yl)benzamide] yielded a 50% inhibitory concentration (IC50) (group: less than 500 nM) of less than 500 nM.

For the setting “group: less than 500 nM”, `CN1CCCC1CCNc1cc(CNc2ccccc2C(=O)Nc2ccc3c(c2)OC(F)(F)O3)ccn1` (stereo not shown) [Example 145, N-(2,2-difluoro-1,3-benzodioxol-5-yl)-2-{[(2-{[2-(1-methylpyrrolidin-2-yl)ethyl]amino}pyridin-4-yl)methyl]amino}benzamidebis(trifluoroacetate)] came in with an IC50 of less than 500 nM.

`O=C(NCCCN1CCCC1)c1cc(CNc2ccccc2C(=O)Nc2ccc3c(c2)OC(F)(F)O3)ccn1` [Example 92, 4-{[(2-{[(2,2-difluoro-1,3-benzodioxol-5-yl)amino]carbonyl}phenyl)amino]methyl}-N-(3-pyrrolidin-1-ylpropyl)pyridine-2-carboxamide] gave a 50% inhibitory concentration (IC50) (group: less than 500 nM) of less than 500 nM.

Compound `CN(C)C(=O)c1cc(CNc2ccccc2C(=O)Nc2ccc3c(c2)OC(F)(F)O3)ccn1` [Example 80, 4-{[(2-{[(2,2-Difluoro-1,3-benzodioxol-5-yl)amino]carbonyl}phenyl)amino]methyl}-N,N-dimethylpyridine-2-carboxamide] had an IC50 under setting [1] of 500 to 1000 nM.

For `CCCOCCNC(=O)c1cc(CNc2ccccc2C(=O)Nc2ccc3c(c2)OC(F)(F)O3)ccn1` [Example 114, 4-{[(2-{[(2,2-difluoro-1,3-benzodioxol-5-yl)amino]carbonyl}phenyl)amino]methyl}-N-(2-propoxyethyl)pyridine-2-carboxamide], for the setting “group: less than 500 nM”, the IC50 is less than 500 nM.

Under setting [1], `O=C(Nc1ccc2c(c1)C(F)(F)OC(F)(C(F)(F)F)O2)c1cccnc1NCc1ccncc1` (stereo not shown) [Example 16, 2-[(Pyridin-4-ylmethyl)amino]-N-[2,4,4-trifluoro-2-(trifluoromethyl)-4H-1,3-benzodioxin-6-yl]nicotinamide] showed a concentration for half-maximal inhibition (IC50) of 500 to 1000 nM.

The compound `CS(=O)(=O)CCNC(=O)c1cc(CNc2ccccc2C(=O)Nc2ccc3c(c2)OC(F)(F)O3)ccn1` [Example 83, 4-{[(2-{[(2,2-Difluoro-1,3-benzodioxol-5-yl)amino]carbonyl}phenyl)amino]methyl}-N-[2-(methylsulfonyl)ethyl]pyridine-2-carboxamide] came in with a half-maximal inhibitory concentration (IC50) (group: less than 500 nM) of less than 500 nM.

In turn, `CNc1cc(CNc2ccccc2C(=O)Nc2ccc3c(c2)OC(F)(F)O3)ccn1` [Example 139, N-(2,2-difluoro-1,3-benzodioxol-5-yl)-2-({[2-(methylamino)pyridin-4-yl]methyl}amino)benzamide trifluoroacetate] gave a half-maximal inhibitory concentration (IC50) (group: less than 500 nM) of less than 500 nM.

The compound `CC(=O)Nc1cc(CNc2ccccc2C(=O)Nc2ccc3c(c2)OC(F)(F)O3)ccn1` [Example 152, 2-({[2-(acetylamino)pyridin-4-yl]methyl}amino)-N-(2,2-difluoro-1,3-benzodioxol-5-yl)benzamide] displayed a half-inhibitory concentration (IC50) (group: less than 500 nM) of less than 500 nM.

For the setting “group: less than 500 nM”, `COC(=O)COCC(=O)Nc1cc(CNc2ccccc2C(=O)Nc2ccc3c(c2)OC(F)(F)O3)ccn1` [Example 157] registered an IC50 of less than 500 nM.

Consider `CNc1nccc(CNc2ccccc2C(=O)Nc2ccc3c(c2)OC(F)(F)O3)n1` [Example 49, N-(2,2-difluoro-1,3-benzodioxol-5-yl)-2-({[2-(methylamino)pyrimidin-4-yl]methyl}amino)benzamide], for which the IC50 (group: less than 500 nM) is less than 500 nM.

In turn, `O=C(NCCOCCO)c1cc(CNc2ccccc2C(=O)Nc2ccc3c(c2)OC(F)(F)O3)ccn1` [Example 103, 4-{[(2-{[(2,2-difluoro-1,3-benzodioxol-5-yl)amino]carbonyl}phenyl)amino]methyl}-N-[2-(2-hydroxyethoxy)ethyl]pyridine-2carboxamide] registered an IC50 (group: less than 500 nM) of less than 500 nM.

Compound `O=C(Nc1ccc2c(c1)OC(F)(F)O2)c1ccccc1NCc1ccnc(NCCOCCO)c1` [Example 138, N-(2,2-difluoro-1,3-benzodioxol-5-yl)-2-{[(2-{[2-(2-hydroxyethoxy)ethyl]amino}pyridin-4-yl)methyl]amino}benzamide trifluoroacetate(salt)] had an IC50 (group: less than 500 nM) of less than 500 nM.

`O=C(Nc1ccc2c(c1)OC(F)(F)O2)c1ccccc1NCc1ccnc(NCCCO)c1` [Example 137, N-(2,2-difluoro-1,3-benzodioxol-5-yl)-2-[({2-[(3-hydroxypropyl)amino]pyridin-4-yl}methyl)amino]benzamide trifluoroacetate(salt)] came in with a 50% inhibitory concentration (IC50) (group: less than 500 nM) of less than 500 nM.

For the setting “group: between 1 and 3 μM”, `Cc1cccc(CNC(=O)Nc2cc(CNc3ccccc3C(=O)Nc3ccc4c(c3)OC(F)(F)O4)ccn2)c1` [Example 171, N-(2,2-difluoro-1,3-benzodioxol-5-yl)-2-({[2-({[(3-methylbenzyl)amino]carbonyl}amino)pyridin-4-yl]methyl}amino)benzamide] yielded an IC50 of 1000 to 3000 nM.

`CN1CCCC1CCNC(=O)c1cc(CNc2ccccc2C(=O)Nc2ccc3c(c2)OC(F)(F)O3)ccn1` (stereo not shown) [Example 117, 4-{[(2-{[(2,2-difluoro-1,3-benzodioxol-5-yl)amino]carbonyl}phenyl)amino]methyl}-N-[2-(1-methylpyrrolidin-2-yl)ethyl]pyridine-2-carboxamide] gave an IC50 (group: less than 500 nM) of less than 500 nM.

In turn, `CN(C)CCCCNC(=O)c1cc(CNc2ccccc2C(=O)Nc2ccc3c(c2)OC(F)(F)O3)ccn1` [Example 90, 4-{[(2-{[(2,2-difluoro-1,3-benzodioxol-5-yl)amino]carbonyl}phenyl)amino]methyl}-N-[4-(dimethylamino)butyl]pyridine-2-carboxamide] came in with an IC50 under setting [1] of 500 to 1000 nM.

For the compound `CNC(=O)Nc1cc(CNc2ccccc2C(=O)Nc2ccc3c(c2)OC(F)(F)O3)ccn1` [Example 165, N-(2,2-difluoro-1,3-benzodioxol-5-yl)-2-{[(2-{[(methylamino)carbonyl]amino}pyridin-4-yl)methyl]amino}benzamide], the concentration for half-maximal inhibition (IC50) (group: less than 500 nM) is less than 500 nM.

Compound `N#Cc1cc(CNc2cc(F)c(F)cc2C(=O)Nc2ccc3c(c2)OC(F)(F)O3)ccn1` [Example 36, 2-{[(2-cyanopyridin-4-yl)methyl]amino}-N-(2,2-difluoro-1,3-benzodioxol-5-yl)-4,5-difluorobenzamide] gave an IC50 (group: between 1 and 3 μM) of 1000 to 3000 nM.

As for `O=C(Nc1ccc2c(c1)OC(F)(F)O2)c1ccccc1NCc1ccnc(NCCCN2CCOCC2)c1` [Example 144, N-(2,2-difluoro-1,3-benzodioxol-5-yl)-2-[({2-[(3-morpholin-4-ylpropyl)amino]pyridin-4-yl}methyl)amino]benzamidebis(trifluoroacetate)], the IC50 (group: less than 500 nM) was less than 500 nM.

Compound `CCCCOCCCNC(=O)c1cc(CNc2ccccc2C(=O)Nc2ccc3c(c2)OC(F)(F)O3)ccn1` [Example 112, N-(3-butoxypropyl)-4-{[(2-{[(2,2difluoro-1,3-benzodioxol-5-yl)amino]carbonyl}phenyl)amino]methyl}pyridine-2-carboxamide] displayed an IC50 under setting [1] of 500 to 1000 nM.
